Experimental data as given in patent US6737383B1, “Herbicidal oxadiazolidines” (priority 1999, dated 2004).

Columns and labels:
bedstraw = assay: Test B pre/postemergence bedstraw; type: in vivo, Galium aparine
Summary of the method: (§1)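 Response is a visual 0-to-10 score relative to untreated plants, where 0 means no effect and 10 means complete control, taken twelve to sixteen days after application. Treatments went onto soil at planting and onto foliage of 1- to 4-leaf plants, using a surfactant-containing non-phytotoxic solvent.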

soybean = assay: Test B pre/postemergence soybean; type: in vivo, Glycine max
Summary of the method: as §1

surinam grass = assay: Test B pre/postemergence surinam grass; type: in vivo, Brachiaria decumbens
Summary of the method: as §1

duck salad = assay: Test B flood test duck salad; type: in vivo, Heteranthera limosa
Summary of the method: (§2)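 Plants were grown to the 2-leaf stage before treatment with test chemical, then held in a greenhouse for twelve to sixteen days. Injury was visually rated against untreated controls on a 0–10 scale, where 0 is no effect and 10 is complete control.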

cocklebur = assay: Test B pre/postemergence cocklebur; type: in vivo, Xanthium strumarium
Summary of the method: as §1

corn = assay: Test B pre/postemergence corn; type: in vivo, Zea mays
Summary of the method: as §1

bamyardgrass = assay: Test B flood test barnyardgrass; type: in vivo, Echinochloa crus-galli
Summary of the method: as §2

velvetleaf = assay: Test B pre/postemergence velvetleaf; type: in vivo, Abutilon theophrasti
Summary of the method: as §1

giant foxtail = assay: Test B pre/postemergence giant foxtail; type: in vivo, Setaria faberii
Summary of the method: as §1

wheat = assay: Test B pre/postemergence wheat; type: in vivo, Triticum aestivum
Summary of the method: as §1

rape = assay: Test B pre/postemergence rape; type: in vivo, Brassica napus
Summary of the method: as §1

crabgrass = assay: Test B pre/postemergence crabgrass; type: in vivo, Digitaria sanguinalis
Summary of the method: as §1

smallflower flatsedge = assay: Test B flood test smallflower flatsedge; type: in vivo, Cyperus difformis
Summary of the method: as §2

blackgrass = assay: Test B pre/postemergence blackgrass; type: in vivo, Alopecurus myosuroides
Summary of the method: as §1

wild oat = assay: Test B pre/postemergence wild oat; type: in vivo, Avena fatua
Summary of the method: as §1

morningglory = assay: Test B pre/postemergence morningglory; type: in vivo, Ipomoea hederacea
Summary of the method: as §1

[1] = Postemergence, Rate 62 g/ha, scale 0 to 10, 0 is no effect, 10 is complete control
[2] = Postemergence, Rate 125 g/ha, scale of 0 to 10 where 0 is no effect and 10 is complete control
[3] = Preemergence, Rate 62 g/ha, scale 0 to 10 (0 no effect, 10 complete control)
[4] = Preemergence, Rate 125 g/ha, scale of 0 to 10 where 0 is no effect and 10 is complete control
[5] = Preemergence, Rate 250 g/ha, scale 0 to 10 (0 no effect, 10 complete control)
[6] = Preemergence, Rate 500 g/ha, scale of 0 to 10 where 0 is no effect and 10 is complete control
[7] = Postemergence, Rate 250 g/ha, scale of 0 to 10, 0 is no effect, 10 is complete control
[8] = Postemergence, Rate 500 g/ha, scale of 0 to 10 where 0 is no effect and 10 is complete control
[9] = Rate 62 g/ha, flood test species, Pre-emergence, visual evaluation after twelve to sixteen days
[10] = Rate 125 g/ha, under heading Pre-emergence, flood test species, visual evaluation after twelve to sixteen days
[11] = Rate 250 g/ha, Pre-emergence (flood test species), scale 0 to 10, 0 is no effect, 10 is complete control
[12] = Rate 500 g/ha, Pre-emergence section of Table B, 0 to 10 scale (0 no effect, 10 complete control)

Compound: CCOC(=O)CC(C(=O)OCC)n1c(=O)on(C(=O)N(c2ccc(F)cc2)C(C)C)c1=O (centres unmarked) [Compound 615]
- Plant response rating, Bedstraw (bedstraw; [1]): 0
- Plant response rating, Bedstraw (bedstraw; [2]): 0
- Bedstraw plant response rating (bedstraw; [3]): 0
- Bedstraw plant response rating (bedstraw; [4]): 0
- Plant response rating, Bedstraw (bedstraw; [5]): 0
- Bedstraw plant response rating (bedstraw; [6]): 0
- Plant response rating, Soybean (soybean; [1]): 1
- Plant response rating, Soybean (soybean; [2]): 1
- Soybean plant response rating (soybean; [7]): 3
- Plant response rating, Soybean (soybean; [8]): 3
- Soybean plant response rating (soybean; [3]): 0
- Soybean plant response rating (soybean; [4]): 0
- Plant response rating, Soybean (soybean; [5]): 0
- Plant response rating, Soybean (soybean; [6]): 0
- Plant response rating, B. signalgrass (surinam grass; [1]): 0
- Plant response rating, B. signalgrass (surinam grass; [2]): 0
- B. signalgrass plant response rating (surinam grass; [7]): 0
- Plant response rating, B. signalgrass (surinam grass; [8]): 0
- B. signalgrass plant response rating (surinam grass; [3]): 0
- B. signalgrass plant response rating (surinam grass; [4]): 0
- Plant response rating, B. signalgrass (surinam grass; [5]): 0
- B. signalgrass plant response rating (surinam grass; [6]): 0
- Plant response rating, Ducksalad (0 to 10 scale, 0 is no effect, 10 is complete control) (duck salad; [9]): 0
- Ducksalad plant response rating (0 to 10 scale, 0 is no effect, 10 is complete control) (duck salad; [10]): 0
- Ducksalad plant response rating (duck salad; [11]): 0
- Ducksalad plant response rating (duck salad; [12]): 0
- Plant response rating, Cocklebur (cocklebur; [1]): 0
- Plant response rating, Cocklebur (cocklebur; [2]): 0
- Cocklebur plant response rating (cocklebur; [7]): 0
- Plant response rating, Cocklebur (cocklebur; [8]): 0
- Cocklebur plant response rating (cocklebur; [3]): 0
- Cocklebur plant response rating (cocklebur; [4]): 0
- Plant response rating, Cocklebur (cocklebur; [5]): 0
- Plant response rating, Cocklebur (cocklebur; [6]): 0
- Plant response rating, Corn (corn; [1]): 0
- Plant response rating, Corn (corn; [2]): 0
- Corn plant response rating (corn; [7]): 0
- Plant response rating, Corn (corn; [8]): 0
- Corn plant response rating (corn; [3]): 0
- Corn plant response rating (corn; [4]): 0
- Plant response rating, Corn (corn; [5]): 0
- Plant response rating, Corn (corn; [6]): 0
- Plant response rating, Barnyardgrass (0 to 10 scale, 0 is no effect, 10 is complete control) (bamyardgrass; [9]): 0
- Barnyardgrass plant response rating (0 to 10 scale, 0 is no effect, 10 is complete control) (bamyardgrass; [10]): 0
- Barnyardgrass plant response rating (bamyardgrass; [11]): 0
- Barnyardgrass plant response rating (bamyardgrass; [12]): 0
- Plant response rating, Velvetleaf (velvetleaf; [1]): 0
- Plant response rating, Velvetleaf (velvetleaf; [2]): 0
- Velvetleaf plant response rating (velvetleaf; [7]): 0
- Plant response rating, Velvetleaf (velvetleaf; [8]): 0
- Velvetleaf plant response rating (velvetleaf; [3]): 0
- Velvetleaf plant response rating (velvetleaf; [4]): 0
- Plant response rating, Velvetleaf (velvetleaf; [5]): 0
- Plant response rating, Velvetleaf (velvetleaf; [6]): 0
- Plant response rating, Giant foxtail (giant foxtail; [1]): 0
- Plant response rating, Giant foxtail (giant foxtail; [2]): 0
- Giant foxtail plant response rating (giant foxtail; [7]): 6
- Plant response rating, Giant foxtail (giant foxtail; [8]): 6
- Giant foxtail plant response rating (giant foxtail; [3]): 0
- Giant foxtail plant response rating (giant foxtail; [4]): 0
- Plant response rating, Giant foxtail (giant foxtail; [5]): 0
- Plant response rating, Giant foxtail (giant foxtail; [6]): 7
- Plant response rating, Wheat (wheat; [1]): 0
- Plant response rating, Wheat (wheat; [2]): 0
- Wheat plant response rating (wheat; [7]): 0
- Plant response rating, Wheat (wheat; [8]): 0
- Wheat plant response rating (wheat; [3]): 0
- Wheat plant response rating (wheat; [4]): 0
- Plant response rating, Wheat (wheat; [5]): 0
- Plant response rating, Wheat (wheat; [6]): 0
- Plant response rating, Rape (rape; [1]): 0
- Plant response rating, Rape (rape; [2]): 0
- Rape plant response rating (rape; [7]): 0
- Plant response rating, Rape (rape; [8]): 0
- Rape plant response rating (rape; [3]): 0
- Rape plant response rating (rape; [4]): 0
- Plant response rating, Rape (rape; [5]): 0
- Plant response rating, Rape (rape; [6]): 0
- Plant response rating, Crabgrass (crabgrass; [1]): 0
- Plant response rating, Crabgrass (crabgrass; [2]): 0
- Crabgrass plant response rating (crabgrass; [7]): 4
- Crabgrass plant response rating (crabgrass; [3]): 0
- Crabgrass plant response rating (crabgrass; [4]): 0
- Plant response rating, Crabgrass (crabgrass; [5]): 0
- Plant response rating, Crabgrass (crabgrass; [6]): 0
- Plant response rating, S. Flatsedge (0 to 10 scale, 0 is no effect, 10 is complete control) (smallflower flatsedge; [9]): 0
- S. Flatsedge plant response rating (0 to 10 scale, 0 is no effect, 10 is complete control) (smallflower flatsedge; [10]): 0
- S. Flatsedge plant response rating (smallflower flatsedge; [11]): 0
- S. Flatsedge plant response rating (smallflower flatsedge; [12]): 0
- Plant response rating, Blackgrass (blackgrass; [1]): 0
- Plant response rating, Blackgrass (blackgrass; [2]): 0
- Blackgrass plant response rating (blackgrass; [7]): 0
- Plant response rating, Blackgrass (blackgrass; [8]): 0
- Blackgrass plant response rating (blackgrass; [3]): 0
- Blackgrass plant response rating (blackgrass; [4]): 0
- Plant response rating, Blackgrass (blackgrass; [5]): 0
- Blackgrass plant response rating (blackgrass; [6]): 4
- Plant response rating, Wild oats (wild oat; [1]): 0
- Plant response rating, Wild oats (wild oat; [2]): 0
- Wild oats plant response rating (wild oat; [7]): 0
- Plant response rating, Wild oats (wild oat; [8]): 0
- Wild oats plant response rating (wild oat; [3]): 0
- Wild oats plant response rating (wild oat; [4]): 0
- Plant response rating, Wild oats (wild oat; [5]): 0
- Plant response rating, Wild oats (wild oat; [6]): 0
- Plant response rating, Morningglory (morningglory; [1]): 0
- Plant response rating, Morningglory (morningglory; [2]): 1
- Morningglory plant response rating (morningglory; [7]): 1
- Plant response rating, Morningglory (morningglory; [8]): 1
- Morningglory plant response rating (morningglory; [3]): 0
- Morningglory plant response rating (morningglory; [4]): 0
- Plant response rating, Morningglory (morningglory; [5]): 0
- Plant response rating, Morningglory (morningglory; [6]): 0
